Holding throughout (experiment): Bliss excess, mean over the matrix (fraction); higher = more synergy
The subject of test [1] is NCI-H1563 (Lung Adenocarcinoma). An outline of the steps: (§1)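 Cell lines grown in DMEM/F12 or RPMI with 10% FBS were plated in 1536-well plates and held 24 hours at 37°C, 5% CO2 before 72 hours of exposure to two-drug dose matrices, with DMSO typically at 0.2%. CellTiter-Glo 2.0 luminescence gave viability, which was converted to inhibition. Vehicle wells were set to 0 and blank wells to 1. Combination Emax is the second-highest inhibition in the matrix, and Bliss excess is the observed combination effect minus the expected EA + EB − EA·EB, where EA and EB are the single-agent effects.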

For test [2], the system named is LOUCY (T-Lymphoblastic Leukemia). An outline of the steps: as §1
Test [3] deals with EB-3 (Burkitt's Lymphoma). An outline of the steps:
as §1

Test [4] deals with Calu-6 (Non-Small Cell Lung Carcinoma). The method, boiled down: as §1
The subject of test [5] is CML-T1 (Chronic Myelogenous Leukemia). An outline of the steps:
as §1

Test [6] has as its system NCI-H810 (Non-Small Cell Lung Carcinoma). An outline of the steps:
as §1

The subject of test [7] is AN3-CA (Endometrial Carcinoma). An outline of the steps:
as §1

The subject of test [8] is RERF-LC-KJ (Lung Adenocarcinoma). An outline of the steps: as §1
Test [9] deals with FLO-1 (Esophageal Adenocarcinoma). An outline of the steps: as §1
Test [10] has as its system BALL-1 (B-Lymphoblastic Leukemia). An outline of the steps: as §1
The test system of the next test is ES-2 (Ovarian Carcinoma). An outline of the steps:
as §1

For test [11], the system named is SJRH30 (Rhabdomyosarcoma). The method, boiled down:
as §1

The subject of test [12] is KYSE-70 (Esophageal Squamous Cell Carcinoma). The method, boiled down: as §1
The subject of test [13] is Becker (Low Grade Glioma). The method, boiled down:
as §1

Test [14] relates to NCI-H1623 (Lung Adenocarcinoma). An outline of the steps:
as §1

The test system of test [15] is NCI-H196 (Small Cell Lung Carcinoma). The method, boiled down:
as §1

Test [16] deals with LAMA-84 (Chronic Myelogenous Leukemia). An outline of the steps:
as §1

The subject of test [17] is Caov-3 (Ovarian Carcinoma). The method, boiled down:
as §1

Test [18] relates to SW684 (Other Solid Carcinomas). An outline of the steps: as §1
In test [19] the test system is NCI-H1755 (Lung Adenocarcinoma). The method, boiled down:
as §1

For `CC1(C)CCC(CN2CCN(c3ccc(C(=O)NS(=O)(=O)c4ccc(NCC5CCOCC5)c([N+](=O)[O-])c4)c(Oc4cnc5[nH]ccc5c4)c3)CC2)=C(c2ccc(Cl)cc2)C1` [Venetoclax] + CN(C)CCCOc1ccc(-c2ccc3ncc4c(c3c2)n(C2CCOCC2)c(=O)n4C)cn1 [AZD0156] (first compound max 1 µM, 7x7, partner max 1 µM), the Bliss excess in test [1] was -0.0099; in [2], 0.0594; in [3], 0.0498; in [4], 0.0071; in test [5] it was 0.0232; in [6], -0.0485. Further, the Bliss excess was -0.06 in test [7]; 0.013 in test [8]; -0.113 in [9]; 0.031 in test [10]; 0.0069 with ES-2 (Ovarian Carcinoma); 0.0084 in test [11]. The Bliss excess in [12] was -0.0359; in [13] it was 0.0229; in test [14], -0.0133; in test [15] it was -0.0333; in test [16], 0.0018; in test [17], -0.0386. Besides, the Bliss excess in [18] is -0.0333; in test [19], 0.0342.

Consider `CC1(C)CCC(CN2CCN(c3ccc(C(=O)NS(=O)(=O)c4ccc(NCC5CCOCC5)c([N+](=O)[O-])c4)c(Oc4cnc5[nH]ccc5c4)c3)CC2)=C(c2ccc(Cl)cc2)C1` [Venetoclax] + COc1cc(Nc2ncc3c(n2)-c2ccc(Cl)cc2C(c2c(F)cccc2OC)=NC3)ccc1C(=O)O [Alisertib] (first compound max 1 µM, 7x7, partner max 10 µM), for which the Bliss excess is -0.0523 in [1]; 0.0646 in test [2]; -0.0103 in [3]; -0.0071 in [4]; 0.0154 in test [5]; 0.0303 in test [6]. The Bliss excess in test [7] was 0.0374; in [8], -0.0527; in test [9], -0.0379; in test [10] it was 0.0181; in the test with ES-2 (Ovarian Carcinoma), -0.0017; in [11] it was 0.0315. The Bliss excess is -0.0084 in test [12]; 0.0786 in test [13]; 0.045 in test [14]; -0.0371 in test [15]; -0.0447 in test [16]; -0.119 in [17]. Further, the Bliss excess in test [18] is -0.0688; in test [19], -0.0281.

`CC1(C)CCC(CN2CCN(c3ccc(C(=O)NS(=O)(=O)c4ccc(NCC5CCOCC5)c([N+](=O)[O-])c4)c(Oc4cnc5[nH]ccc5c4)c3)CC2)=C(c2ccc(Cl)cc2)C1` [Venetoclax] + C[C@@H]1COCCN1C2=NC(=NC(=C2)C3(CC3)[S@](=N)(=O)C)C4=C5C=CNC5=NC=C4 [AZD6738] (first compound max 1 µM, 7x7, partner max 10 µM): the Bliss excess was 0.0131 in test [1]; -0.0462 in [2]; -0.0047 in test [3]; -0.0261 in [4]; 0.0145 in [5]; -0.0356 in test [6]. Further, the Bliss excess in test [7] was -0.0068; in test [8], -0.0036; in test [9], -0.0338; in [10], 0.0053; with ES-2 (Ovarian Carcinoma) it was -0.0372; in test [11] it was -0.0182. In addition, the Bliss excess in [12] is -0.0447; in test [13], -0.0388; in test [14], 0.0068; in test [15] it was 0.0092; in test [16] it was -0.0263; in test [17], -0.0574. In addition, the Bliss excess in test [18] was -0.0138; in test [19], -0.0578.

As for `CC1(C)CCC(CN2CCN(c3ccc(C(=O)NS(=O)(=O)c4ccc(NCC5CCOCC5)c([N+](=O)[O-])c4)c(Oc4cnc5[nH]ccc5c4)c3)CC2)=C(c2ccc(Cl)cc2)C1` [Venetoclax] + C[C@@H](Nc1cc(F)cc(F)c1)c1cc(C(=O)N(C)C)cc2c(=O)cc(N3CCOCC3)oc12 [AZD8186] (first compound max 1 µM, 7x7, partner max 3 µM), the Bliss excess is 0.0389 in [1]; 0.0146 in test [2]; -0.0366 in [3]; -0.0446 in test [4]; 0.0023 in test [5]; -0.0489 in [6]. For the same compound, the Bliss excess was -0.0453 in test [7]; -0.0632 in test [8]; -0.0712 in [9]; -0.0008 in [10]; -0.0199 in the test with ES-2 (Ovarian Carcinoma); -0.0248 in test [11]. For the same compound, the Bliss excess is -0.0239 in test [12]; 0.0404 in test [13]; -0.0215 in test [14]; -0.03 in test [15]; -0.0006 in test [16]; -0.0548 in test [17]. For the same compound, the Bliss excess in test [18] is -0.0862; in test [19], 0.0229.

Take `CC1(C)CCC(CN2CCN(c3ccc(C(=O)NS(=O)(=O)c4ccc(NCC5CCOCC5)c([N+](=O)[O-])c4)c(Oc4cnc5[nH]ccc5c4)c3)CC2)=C(c2ccc(Cl)cc2)C1` [Venetoclax] + Cc1cc2ncnn2cc1Nc1ncc2c(n1)n(C1CCOCC1)c(=O)n2C [AZD7648] (first compound max 1 µM, 7x7, partner max 10 µM): the Bliss excess in test [1] is -0.0123; in test [2], 0.0678; in [3], -0.0225; in test [4], 0.0067; in [5], -0.0195; in test [6], -0.028. In addition, the Bliss excess is -0.0108 in test [7]; -0.0564 in test [8]; -0.114 in test [9]; -0.0008 in test [10]; -0.0087 in the test with ES-2 (Ovarian Carcinoma); 0.0112 in test [11]. Also, the Bliss excess in test [12] was -0.0003; in [13] it was 0.0128; in test [14], -0.0006; in test [15], -0.0385; in test [16] it was -0.0041; in test [17] it was -0.159. In addition, the Bliss excess in test [18] was -0.0627; in test [19] it was -0.025.

On to `CC1(C)CCC(CN2CCN(c3ccc(C(=O)NS(=O)(=O)c4ccc(NCC5CCOCC5)c([N+](=O)[O-])c4)c(Oc4cnc5[nH]ccc5c4)c3)CC2)=C(c2ccc(Cl)cc2)C1` [Venetoclax] + Cn1cnc2c(F)c(Nc3ccc(Br)cc3Cl)c(C(=O)NOCCO)cc21 [Selumetinib] (first compound max 1 µM, 7x7, partner max 3 µM), for which the Bliss excess in test [1] is 0.0042; in [2], 0.0179; in [3] it was -0.0241; in test [4], -0.0665; in test [5], 0.0069; in [6], -0.052. The Bliss excess is -0.0076 in test [7]; -0.0265 in [8]; -0.0485 in test [9]; -0.0026 in test [10]; -0.0367 with ES-2 (Ovarian Carcinoma); -0.0199 in test [11]. The Bliss excess is 0.012 in [12]; -0.008 in test [13]; -0.0046 in test [14]; -0.044 in test [15]; -0.0157 in test [16]; -0.0295 in test [17]. The Bliss excess in [18] was -0.0631; in test [19], 0.0328.

The values above are taken from the supplement of paper PMC11061612.
